According to article PMC12029531, “Selenium in Action: Exploring the Biological Wonders of Hydroselenite Salts” (Molecules, 2025):

Test: Water solubility by 1H-qNMR in D2O
Format: physicochemical
Conditions: 298 K

Row | SMILES | Water Solubility [µg/mL]
1 | Nc1ccc(S(=O)(=O)Nc2ncccn2)cc1 [AB-4, sulfadiazine] | 112
2 | NNC(=O)c1ccncc1 [AB-5, isoniazid] | 5350
3 | COc1cc(Cc2cnc(N)nc2N)cc(OC)c1OC [AB-2, trimethoprim] | 284
